Assay results taken from PubChem BioAssay (NCI).
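Tested at 5 concentrations; 48 h exposure; 96-well plates; endpoints linearly interpolated, else capped at highest concentration. GI50: concentration for 50% inhibition of growth. TGI denotes the concentration required for complete inhibition of growth.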

Experiments:
Experiment in all cases: growth of human tumour cells (NCI), 48 h
[1] = system: EKVX NSCLC
[2] = system: SF-539 CNS
[3] = system: KM12 colon
[4] = system: UO-31 renal
[5] = system: T-47D breast
[6] = system: MCF7 breast
[7] = system: SK-MEL-2 melanoma
[8] = system: NCI-H460 lung
[9] = system: TK-10 renal
[10] = system: SK-MEL-5 melanoma
[11] = system: NCI/ADR-RES ovarian
[12] = system: SNB-75 CNS
[13] = system: OVCAR-4 ovarian
[14] = system: SF-268 CNS
[15] = system: SK-MEL-28 melanoma
[16] = system: HT29 colon
[17] = system: MALME-3M melanoma
[18] = system: A549 NSCLC
[19] = system: OVCAR-8 ovarian
[20] = system: MDA-MB-231 breast
[21] = system: UACC-257 melanoma
[22] = system: ACHN renal
[23] = system: HCC-2998 colon
[24] = system: DU-145 prostate
[25] = system: PC-3 prostate
[26] = system: HOP-92 NSCLC
[27] = system: CAKI-1 renal
[28] = system: SR leukemia
[29] = system: 786-0 renal
[30] = system: OVCAR-5 ovarian
[31] = system: HS 578T breast
[32] = system: M14 melanoma
[33] = system: SN12C renal
[34] = system: IGROV1 ovarian
[35] = system: SK-OV-3 ovarian
[36] = system: RPMI-8226 leukemia
[37] = system: UACC-62 melanoma
[38] = system: NCI-H522 lung
[39] = system: BT-549 breast
[40] = system: U251 CNS
[41] = system: RXF 393 renal
[42] = system: OVCAR-3 ovarian
[43] = system: NCI-H23 lung
[44] = system: LOX IMVI melanoma
[45] = system: MDA-MB-435
[46] = system: SNB-19 CNS
[47] = system: HL-60(TB) leukemia
[48] = system: SW-620 colon
[49] = system: MOLT-4 leukemia
[50] = system: CCRF-CEM leukemia
[51] = system: HOP-62 NSCLC
[52] = system: SF-295 CNS
[53] = system: COLO 205 colon
[54] = system: HCT-15 colon
[55] = system: HCT-116 colon
[56] = system: K-562 leukemia

**Q.** `S=C(Nc1ccc(Cl)cc1)Nc1ccc(-c2nc3ccccc3o2)cc1` was tested. Which GI50 [1] did it give?
**A.** 19.4 µM

**Q.** What about the TGI [1] of the same compound?
**A.** 64 µM

**Q.** What about the GI50 [2] of the same compound?
**A.** 19.2 µM

**Q.** And the TGI [2]?
**A.** 41.8 µM

**Q.** And the GI50 [3]?
**A.** 15.8 µM

**Q.** And the TGI [3]?
**A.** 42.9 µM

**Q.** What about the GI50 [4] of the same compound?
**A.** 11.6 µM

**Q.** What about the TGI [4] of the same compound?
**A.** 26.1 µM

**Q.** What about the GI50 [5] of the same compound?
**A.** 16.8 µM

**Q.** And the TGI [5]?
**A.** 82.8 µM

**Q.** And the GI50 [6]?
**A.** 17.6 µM

**Q.** What about the TGI [6] of the same compound?
**A.** 51.4 µM

**Q.** And the GI50 [7]?
**A.** 24.2 µM

**Q.** What about the TGI [7] of the same compound?
**A.** 51.2 µM

**Q.** And the GI50 [8]?
**A.** 17.4 µM

**Q.** What about the TGI [8] of the same compound?
**A.** 58.3 µM

**Q.** And the GI50 [9]?
**A.** 21.2 µM

**Q.** And the TGI [9]?
**A.** 74.1 µM

**Q.** What about the GI50 [10] of the same compound?
**A.** 14 µM

**Q.** What about the TGI [10] of the same compound?
**A.** 32.2 µM

**Q.** What about the GI50 [11] of the same compound?
**A.** 21.8 µM

**Q.** And the TGI [11]?
**A.** 58.7 µM

**Q.** What about the GI50 [12] of the same compound?
**A.** 37.7 µM

**Q.** And the TGI [12]?
**A.** 72.2 µM

**Q.** What about the GI50 [13] of the same compound?
**A.** 25.1 µM

**Q.** What about the TGI [13] of the same compound?
**A.** > 100 µM

**Q.** And the GI50 [14]?
**A.** 16.5 µM

**Q.** And the TGI [14]?
**A.** 76.7 µM

**Q.** And the GI50 [15]?
**A.** 20.6 µM

**Q.** And the TGI [15]?
**A.** 43.2 µM

**Q.** And the GI50 [16]?
**A.** 17.4 µM

**Q.** And the TGI [16]?
**A.** 41.8 µM

**Q.** And the GI50 [17]?
**A.** 23.8 µM

**Q.** What about the TGI [17] of the same compound?
**A.** 59.9 µM

**Q.** And the GI50 [18]?
**A.** 24.3 µM

**Q.** And the TGI [18]?
**A.** 92.6 µM

**Q.** What about the GI50 [19] of the same compound?
**A.** 21 µM

**Q.** And the TGI [19]?
**A.** 49.7 µM

**Q.** What about the GI50 [20] of the same compound?
**A.** 10.3 µM

**Q.** And the TGI [20]?
**A.** 35.1 µM

**Q.** What about the GI50 [21] of the same compound?
**A.** 21.4 µM

**Q.** And the TGI [21]?
**A.** 45.4 µM

**Q.** What about the GI50 [22] of the same compound?
**A.** 17.3 µM

**Q.** And the TGI [22]?
**A.** 35.8 µM

**Q.** What about the GI50 [23] of the same compound?
**A.** 13.8 µM

**Q.** And the TGI [23]?
**A.** 26.7 µM

**Q.** And the GI50 [24]?
**A.** 17 µM

**Q.** What about the TGI [24] of the same compound?
**A.** 38.6 µM

**Q.** What about the GI50 [25] of the same compound?
**A.** 15.4 µM

**Q.** What about the TGI [25] of the same compound?
**A.** 51.4 µM

**Q.** What about the GI50 [26] of the same compound?
**A.** 17.2 µM

**Q.** And the TGI [26]?
**A.** 50.4 µM

**Q.** What about the GI50 [27] of the same compound?
**A.** 12.3 µM

**Q.** What about the TGI [27] of the same compound?
**A.** 39.8 µM

**Q.** What about the GI50 [28] of the same compound?
**A.** 19 µM

**Q.** What about the TGI [28] of the same compound?
**A.** 52.3 µM

**Q.** What about the GI50 [29] of the same compound?
**A.** 26.3 µM

**Q.** What about the TGI [29] of the same compound?
**A.** > 100 µM

**Q.** What about the GI50 [30] of the same compound?
**A.** 20.4 µM

**Q.** What about the TGI [30] of the same compound?
**A.** 52.9 µM

**Q.** And the GI50 [31]?
**A.** 21.2 µM

**Q.** And the TGI [31]?
**A.** 79.2 µM

**Q.** And the GI50 [32]?
**A.** 23.2 µM

**Q.** And the TGI [32]?
**A.** 52.9 µM

**Q.** What about the GI50 [33] of the same compound?
**A.** 13.7 µM

**Q.** And the TGI [33]?
**A.** 28.8 µM

**Q.** And the GI50 [34]?
**A.** 10.9 µM

**Q.** And the TGI [34]?
**A.** 37.4 µM

**Q.** And the GI50 [35]?
**A.** 32.3 µM

**Q.** What about the TGI [35] of the same compound?
**A.** > 100 µM

**Q.** What about the GI50 [36] of the same compound?
**A.** 3.8 µM

**Q.** What about the TGI [36] of the same compound?
**A.** 23.2 µM

**Q.** What about the GI50 [37] of the same compound?
**A.** 12.7 µM

**Q.** What about the TGI [37] of the same compound?
**A.** 27.7 µM

**Q.** What about the GI50 [38] of the same compound?
**A.** 11 µM

**Q.** What about the TGI [38] of the same compound?
**A.** 26.7 µM

**Q.** And the GI50 [39]?
**A.** 22.2 µM

**Q.** What about the TGI [39] of the same compound?
**A.** 60.7 µM

**Q.** What about the GI50 [40] of the same compound?
**A.** 14.1 µM

**Q.** What about the TGI [40] of the same compound?
**A.** 29.7 µM

**Q.** And the GI50 [41]?
**A.** 10.9 µM

**Q.** And the TGI [41]?
**A.** 30.7 µM

**Q.** And the GI50 [42]?
**A.** 13.6 µM

**Q.** And the TGI [42]?
**A.** 44.7 µM

**Q.** And the GI50 [43]?
**A.** 17.7 µM

**Q.** And the TGI [43]?
**A.** 41.8 µM

**Q.** What about the GI50 [44] of the same compound?
**A.** 11.7 µM

**Q.** What about the TGI [44] of the same compound?
**A.** 26.3 µM

**Q.** And the GI50 [45]?
**A.** 18.5 µM

**Q.** What about the TGI [45] of the same compound?
**A.** 43.9 µM

**Q.** What about the GI50 [46] of the same compound?
**A.** 25.6 µM

**Q.** And the TGI [46]?
**A.** > 100 µM

**Q.** And the GI50 [47]?
**A.** 32.2 µM

**Q.** And the TGI [47]?
**A.** > 100 µM

**Q.** What about the GI50 [48] of the same compound?
**A.** 19.8 µM

**Q.** And the TGI [48]?
**A.** 60.3 µM

**Q.** What about the GI50 [49] of the same compound?
**A.** 18.5 µM

**Q.** And the TGI [49]?
**A.** > 100 µM

**Q.** What about the GI50 [50] of the same compound?
**A.** 0.062 µM

**Q.** What about the TGI [50] of the same compound?
**A.** 19.3 µM

**Q.** And the GI50 [51]?
**A.** 26 µM

**Q.** What about the TGI [51] of the same compound?
**A.** 57.4 µM

**Q.** And the GI50 [52]?
**A.** 13.7 µM

**Q.** What about the TGI [52] of the same compound?
**A.** 42.8 µM

**Q.** What about the GI50 [53] of the same compound?
**A.** 19.9 µM

**Q.** And the TGI [53]?
**A.** > 100 µM

**Q.** And the GI50 [54]?
**A.** 10.9 µM

**Q.** And the TGI [54]?
**A.** 25.7 µM

**Q.** And the GI50 [55]?
**A.** 13.6 µM

**Q.** And the TGI [55]?
**A.** 26.4 µM

**Q.** What about the GI50 [56] of the same compound?
**A.** 22.6 µM

**Q.** What about the TGI [56] of the same compound?
**A.** > 100 µM
